This assay has as its system Enterococcus faecalis ATCC 29212. Briefly: MIC against Enterococcus faecalis ATCC 29212. In kind it is cell-based. As to conditions: ATCC29212; Enterococcus faecalis ATCC 29212; read-out: MICs against Enterococcus faecalis, Activity. The method, boiled down:
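MIC measured by broth microdilution or agar dilution following CLSI guidelines (M7-A7 for aerobes, M11-A6 for anaerobes).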

SMILES strings stand for the structures. In brackets after ≈: the same amount, converted by molar mass.

This is an account of results in patent publication US8481544B2, “Antibacterial compositions” (Biota Europe Limited, priority 2006, dated 2013).

On to `CCNC(=O)Nc1nc2cc(-c3cnccc3C)cc(-c3ccccn3)c2s1` [Example 39, 1-Ethyl-3-[5-(4-methyl-pyridin-3-yl)-7-pyridin-2-yl-benzothiazol-2-yl]-urea], for which the MIC was in the range of 0.25 to 1 µg/mL (≈ 0.642 to 2.57 µM).
The figure for `CCNC(=O)Nc1nc2cc(-c3cncc(OC)c3)cc(-c3cccnc3)c2s1` [Example 31, 1-Ethyl-3-[5-(5-methoxy-pyridin-3-yl)-7-pyridin-3-yl-benzothiazol-2-yl]-urea] is 0.25 to 1 µg/mL (≈ 0.617 to 2.47 µM); for `CCNC(=O)Nc1nc2cc(-c3cnccn3)cc(-c3cccnc3)c2s1` [Example 43, 1-Ethyl-3-(5-pyrazin-2-yl-7-pyridin-3-yl-benzothiazol-2-yl)-urea] it is 0.25 to 1 µg/mL (≈ 0.664 to 2.66 µM).
For the compound `CCNC(=O)Nc1nc2cc(-c3cccnc3)cc(-c3cc(N(C)C)ccn3)c2s1` [Example 169, 1-[7-(4-Dimethylamino-pyridin-2-yl)-5-pyridin-3-yl-benzothiazol-2-yl]-3-ethyl-urea], the MIC was 0.25 to 1 µg/mL (≈ 0.597 to 2.39 µM).
The same measure for `CCNC(=O)Nc1nc2cc(-c3ccc(O)nc3)cc(-c3cccnc3)c2s1` [Example 16, 1-Ethyl-3-[5-(6-hydroxy-pyridin-3-yl)-7-pyridin-3-yl-benzothiazol-2-yl]-urea]: 2 to 16 µg/mL (≈ 5.11 to 40.9 µM).
Turning to `CCNC(=O)Nc1nc2cc(-c3cccnc3)cc(-c3csc(OC)n3)c2s1` [Example 157, 1-Ethyl-3-[7-(2-methoxy-thiazol-4-yl)-5-pyridin-3-yl-benzothiazol-2-yl]-urea], the MIC was in the range of 0.25 to 1 µg/mL (≈ 0.608 to 2.43 µM).
The same measure for `CCNC(=O)Nc1nc2cc(-c3ccc(CO)cc3)cc(-c3ccc(CO)cc3)c2s1` [Example 144, 1-[5,7-Bis-(4-hydroxymethyl-phenyl)-benzothiazol-2-yl]-3-ethyl-urea]: 0.25 to 1 µg/mL (≈ 0.577 to 2.31 µM); for `CCNC(=O)Nc1nc2cc(-c3cccnc3)cc(-c3nc4ccccc4s3)c2s1` [Example 117, 1-Ethyl-3-(5′-pyridin-3-yl-[2,7′]bibenzothiazolyl-2′-yl)-urea]: < 0.25 µg/mL.
For `CCNC(=O)Nc1nc2cc(-c3cccnc3C)cc(-c3ccccn3)c2s1` [Example 52, 1-Ethyl-3-[5-(2-methyl-pyridin-3-yl)-7-pyridin-2-yl-benzothiazol-2-yl]-urea], the MIC is 0.25 to 1 µg/mL (≈ 0.642 to 2.57 µM).
`CCNC(=O)Nc1nc2cc(-c3ccc(N4CCN(C)CC4)nc3)cc(-c3cccnc3)c2s1` [Example 23, 1-Ethyl-3-{5-[6-(4-methyl-piperazin-1-yl)-pyridin-3-yl]-7-pyridin-3-yl-benzothiazol-2-yl}-urea]: the MIC lay within 2 to 16 µg/mL (≈ 4.22 to 33.8 µM).
The figure for `CCNC(=O)Nc1nc2cc(-c3cncnc3)cc(-c3cccnc3)c2s1` [Example 13, 1-Ethyl-3-(7-pyridin-3-yl-5-pyrimidin-5-yl-benzothiazol-2-yl)-urea] is 0.25 to 1 µg/mL (≈ 0.664 to 2.66 µM); for `CCNC(=O)Nc1nc2cc(-c3cccnc3)cc(-n3cccn3)c2s1` [Example 140, 1-Ethyl-3-(7-pyrazol-1-yl-5-pyridin-3-yl-benzothiazol-2-yl)-urea] it is 0.25 to 1 µg/mL (≈ 0.686 to 2.74 µM).
Take `CCNC(=O)Nc1nc2cc(-c3ccc(CN4CCOCC4)cc3)cc(-c3ccc(CN4CCOCC4)cc3)c2s1` [Example 146, 1-[5,7-Bis-(4-morpholin-4-ylmethyl-phenyl)-benzothiazol-2-yl]-3-ethyl-urea]: the MIC is 2 to 16 µg/mL (≈ 3.5 to 28 µM).
The figure for `CCNC(=O)Nc1nc2cc(-c3ccnc(O)c3)cc(-c3ccccn3)c2s1` [Example 56, 1-Ethyl-3-[5-(2-hydroxy-pyridin-4-yl)-7-pyridin-2-yl-benzothiazol-2-yl]-urea] is 0.25 to 1 µg/mL (≈ 0.639 to 2.55 µM); for `CCNC(=O)Nc1nc2cc(-c3cccnc3)cc(-c3nc(C)ccc3C#N)c2s1` [Example 103, 1-[7-(3-Cyano-6-methyl-pyridin-2-yl)-5-pyridin-3-yl-benzothiazol-2-yl]-3-ethyl-urea] it is < 0.25 µg/mL; for `CCNC(=O)Nc1nc2cc(-c3ccc(CN(CCOC)CCOC)nc3)cc(-c3ccccn3)c2s1` [Example 60, 1-[5-(6-{[Bis-(2-methoxy-ethyl)-amino]-methyl}-pyridin-3-yl)-7-pyridin-2-yl-benzothiazol-2-yl]-3-ethyl-urea] it is 0.25 to 1 µg/mL (≈ 0.48 to 1.92 µM).
The figure for `CCNC(=O)Nc1nc2cc(-c3cccnc3)cc(-c3ncccc3CO)c2s1` [Example 109, 1-Ethyl-3-[7-(3-hydroxymethyl-pyridin-2-yl)-5-pyridin-3-yl-benzothiazol-2-yl]-urea] is 2 to 16 µg/mL (≈ 4.93 to 39.5 µM); for `CCNC(=O)Nc1nc2cc(-c3cc(C)n(C)c(=O)c3)cc(-c3cccnc3)c2s1` [Example 50, 1-[5-(1,6-Dimethyl-2-oxo-1,2-dihydro-pyridin-4-yl)-7-pyridin-3-yl-benzothiazol-2-yl]-3-ethyl-urea] it is 0.25 to 1 µg/mL (≈ 0.596 to 2.38 µM).
The same measure for `CCNC(=O)Nc1nc2cc(-c3cccnc3)cc(-c3cnc(N)cn3)c2s1` [Example 131, 1-[7-(5-Amino-pyrazin-2-yl)-5-pyridin-3-yl-benzothiazol-2-yl]-3-ethyl-urea]: < 0.25 µg/mL.
In the case of `CCNC(=O)Nc1nc2cc(Br)cc(-c3cccnc3)c2s1` [Example 2, 1-(5-Bromo-7-pyridin-3-yl-benzothiazol-2-yl)-3-ethyl-urea], the MIC is 2 to 16 µg/mL (≈ 5.3 to 42.4 µM).
The same measure for `CCNC(=O)Nc1nc2cc(-c3cncc(OC)c3)cc(-c3ccccn3)c2s1` [Example 179, 1-Ethyl-3-[5-(5-methoxy-pyridin-3-yl)-7-pyridin-2-yl-benzothiazol-2-yl]-urea]: < 0.25 µg/mL.
The figure for `CCNC(=O)Nc1nc2cc(-c3ccn(CCO)c(=O)c3)cc(-c3ccccn3)c2s1` [Example 57, 1-Ethyl-3-{5-[1-(2-hydroxy-ethyl)-2-oxo-1,2-dihydro-pyridin-4-yl]-7-pyridin-2-yl-benzothiazol-2-yl}-urea] is 0.25 to 1 µg/mL (≈ 0.574 to 2.3 µM).
Regarding `CCNC(=O)Nc1nc2cc(-c3cccnc3)cc(-c3cnn(C)c3)c2s1` [Example 83, 1-Ethyl-3-[7-(1-methyl-1H-pyrazol-4-yl)-5-pyridin-3-yl-benzothiazol-2-yl]-urea], the MIC lay in the range of 0.25 to 1 µg/mL (≈ 0.661 to 2.64 µM).
As for `CCNC(=O)Nc1nc2cc(-c3cncc(Cl)c3)cc(-c3cccnc3)c2s1` [Example 48, 1-[5-(5-Chloro-pyridin-3-yl)-7-pyridin-3-yl-benzothiazol-2-yl]-3-ethyl-urea], the MIC was in the range of 0.25 to 1 µg/mL (≈ 0.61 to 2.44 µM).
The same measure for `CCNC(=O)Nc1nc2cc(-c3cccnc3)cc(-c3cccc(N4CCOCC4)n3)c2s1` [Example 166, 1-Ethyl-3-[7-(6-morpholin-4-yl-pyridin-2-yl)-5-pyridin-3-yl-benzothiazol-2-yl]-urea]: 0.25 to 1 µg/mL (≈ 0.543 to 2.17 µM); for `CCNC(=O)Nc1nc2cc(-c3ccncc3)cc(-c3cccnc3)c2s1` [Example 30, 1-Ethyl-3-(5-pyridin-4-yl-7-pyridin-3-yl-benzothiazol-2-yl)-urea]: 0.25 to 1 µg/mL (≈ 0.666 to 2.66 µM).
The figure for `CCNC(=O)Nc1nc2cc(-c3cccnc3)cc(-c3ccc(Cl)cn3)c2s1` [Example 130, 1-[7-(5-Chloro-pyridin-2-yl)-5-pyridin-3-yl-benzothiazol-2-yl]-3-ethyl-urea] is < 0.25 µg/mL; for `CCNC(=O)Nc1nc2cc(-c3cccnc3)cc(-c3cncnc3)c2s1` [Example 159, 1-Ethyl-3-(5-pyridin-3-yl-7-pyrimidin-5-yl-benzothiazol-2-yl)-urea] it is 0.25 to 1 µg/mL (≈ 0.664 to 2.66 µM); for `CCNC(=O)Nc1nc2cc(-c3ccc(N)nc3)cc(-c3ccccn3)c2s1` [Example 138, 1-[5-(6-Amino-pyridin-3-yl)-7-pyridin-2-yl-benzothiazol-2-yl]-3-ethyl-urea] it is < 0.25 µg/mL.
With `CCNC(=O)Nc1nc2cc(-c3ccc(N(C)C)nc3)cc(-c3ccccn3)c2s1` [Example 38, 1-[5-(6-Dimethylamino-pyridin-3-yl)-7-pyridin-2-yl-benzothiazol-2-yl]-3-ethyl-urea], the MIC was 0.25 to 1 µg/mL (≈ 0.597 to 2.39 µM).
Take `CCNC(=O)Nc1nc2cc(-c3cncnc3)cc(-c3cncnc3)c2s1` [Example 147, 1-(5,7-Di-pyrimidin-5-yl-benzothiazol-2-yl)-3-ethyl-urea]: the MIC lay within 2 to 16 µg/mL (≈ 5.3 to 42.4 µM).
For the compound `CCNC(=O)Nc1nc2cc(-c3cccnc3)cc(-c3nccc(OC)n3)c2s1` [Example 124, 1-Ethyl-3-[7-(4-methoxy-pyrimidin-2-yl)-5-pyridin-3-yl-benzothiazol-2-yl]-urea], the MIC was < 0.25 µg/mL.
The figure for `CCNC(=O)Nc1nc2cc(-c3cncc(N4CCN(C)CC4)c3)cc(-c3ccccn3)c2s1` [Example 62, 1-Ethyl-3-{5-[5-(4-methyl-piperazin-1-yl)-pyridin-3-yl]-7-pyridin-2-yl-benzothiazol-2-yl}-urea] is 0.25 to 1 µg/mL (≈ 0.528 to 2.11 µM).
The same measure for `CCNC(=O)Nc1nc2cc(-c3cccnc3)cc(-c3ccccc3OC)c2s1` [Example 87, 1-Ethyl-3-[7-(2-methoxy-phenyl)-5-pyridin-3-yl-benzothiazol-2-yl]-urea]: 0.25 to 1 µg/mL (≈ 0.618 to 2.47 µM); for `CCNC(=O)Nc1nc2cc(-c3cccnc3)cc(-c3cccnn3)c2s1` [Example 160, 1-Ethyl-3-(7-pyridazin-3-yl-5-pyridin-3-yl-benzothiazol-2-yl)-urea]: 2 to 16 µg/mL (≈ 5.31 to 42.5 µM); for `CCNC(=O)Nc1nc2cc(-c3cccnc3)cc(-c3cc(Cl)ccn3)c2s1` [Example 127, 1-[7-(4-Chloro-pyridin-2-yl)-5-pyridin-3-yl-benzothiazol-2-yl]-3-ethyl-urea]: < 0.25 µg/mL.
The figure for `CCNC(=O)Nc1nc2cc(-c3cccnc3)cc(-c3sc(C)nc3C)c2s1` [Example 102, 1-[7-(2,4-Dimethyl-thiazol-5-yl)-5-pyridin-3-yl-benzothiazol-2-yl]-3-ethyl-urea] is 0.25 to 1 µg/mL (≈ 0.61 to 2.44 µM); for `CCNC(=O)Nc1nc2cc(-c3cccnc3)cc(NC(=O)NCC)c2s1` [Example 150, 1-Ethyl-3-[2-(3-ethyl-ureido)-5-pyridin-3-yl-benzothiazol-7-yl]-urea] it is 2 to 16 µg/mL (≈ 5.2 to 41.6 µM).
`CCNC(=O)Nc1nc2cc(-c3cccnc3)cc(-c3cccc(C)n3)c2s1` [Example 177, 1-Ethyl-3-[7-(6-methyl-pyridin-2-yl)-5-pyridin-3-yl-benzothiazol-2-yl]-urea]: the MIC is < 0.25 µg/mL.
Consider `CCNC(=O)Nc1nc2cc(-c3cccnc3)cc(-c3ccccc3F)c2s1` [Example 75, 1-Ethyl-3-[7-(2-fluoro-phenyl)-5-pyridin-3-yl-benzothiazol-2-yl]-urea], for which the MIC was 0.25 to 1 µg/mL (≈ 0.637 to 2.55 µM).
In the case of `CCNC(=O)Nc1nc2cc(-c3cccnc3)cc(-c3ccccc3)c2s1` [Example 78, 1-Ethyl-3-(7-phenyl-5-pyridin-3-yl-benzothiazol-2-yl)-urea], the MIC is 0.25 to 1 µg/mL (≈ 0.668 to 2.67 µM).
